What was measured:
[1] = Solubility determination in oil (cottonseed oil, sesame oil)
Procedure: A known amount of test substance (˜40 mg) was weighed into the vial, 100 μL of oil was added and heated to 60° C. and then system was slurried to reach equilibrium. […] Extra oil was added into the vial once compound precipitated out and then the system was re-equilibrated at 1000 rpm at room temperature (25° C.). Final concentration was determined by HPLC method as described below in Table 6a and 6b.

[2] = Plasma stability assay, rat plasma; type: in vitro ADME; details: 37° C., 10 μM
Procedure: Plasma stability determination of the test compounds in rat, dog, cynomolgus monkey and human plasma is performed using HPLC-MS. For rat, incubations are carried out in 96-well polypropylene plates in 5 aliquots of 70 μL each (one for each time point). […] Five time points are analyzed (0, 15, 120, 480 and 1440 min). For dog, monkey and human, test compounds (2 μM, final solvent concentration 1%) were also incubated at 37° C. and analyzed at five time points (0, 10, 30, 60 and 120 min). All incubations are performed in duplicates. The samples are analyzed by HPLC-MS. The percentage of parent compound remaining after incubation in plasma is determined.

[3] = Polymorph screening of solid state drug substances; details: for XRPD results (Dried): stirred 50 °C 72 hours, solids dried; for Visual observation 50° C. / Visual observation RT: target conc. 100 mg/ml
[4] = heating temp. 60 °C, obs. temp. 25 °C
[5] = heating temp. 60 °C, obs. temp. 40 °C
[6] = heating temp. 40 °C, obs. temp. 40 °C

| Compound | Approximate Solubility (mg/mL) in Excipient: Sesame oil [1, 4] [mg/mL] | % remaining at time point in minutes, 0 min [2] [%] | % remaining at time point in minutes, 15 min [2] [%] | % remaining at time point in minutes, 120 min [2] [%] | % remaining at time point in minutes, 480 min [2] [%] | % remaining at time point in minutes, 1440 min [2] [%] | also measured |
| --- | --- | --- | --- | --- | --- | --- | --- |
| CCCCC/C=C\C/C=C\CCCCCCCC(=O)Oc1ccc2c3c1O[C@H]1C(=O)CC[C@@]4(O)C(C2)N(CC2CC2)CC[C@]314 [Compound 53, (4aS,7aR,12bS)-3-(cyclopropylmethyl)-4a-hydroxy-7-oxo-2,3,4,4a,5,6,7,7a-octahydro-1H-4,12-methanobenzofuro[3,2-e]isoquinolin-9-yl (9Z,12Z)-octadeca-9,12-di.enoate] | >401.9 | 100 | 46.85 | 19.6 | 7.3 | 1.9 | Approximate Solubility (mg/mL) in Excipient: Cottonseed oil [1, 4]: >408.5 mg/mL; Approximate Solubility (mg/mL) in Excipient: Sesame oil [1, 5]: >406.3 mg/mL |
| C=C1CC[C@@]2(O)C3Cc4ccc(OC(=O)OCCCCCCCCCCCCCCCCCCCC)c5c4[C@@]2(CCN3CC2CC2)[C@H]1O5 [Compound 28, (4aS,7aS,12bS)-3-(cyclopropylmethyl)-4a-hydroxy-7-methylene-2,3,4,4a,5,6,7,7a-octahydro-1H-4,12-methanobenzofuro[3,2-e]isoquinolin-9-yl icosyl carbonate] | <50.6 | – | – | – | – | – | – |
| CCCCCCCC/C=C\CCCCCCCCCCCC(=O)Oc1ccc2c3c1O[C@H]1C(=O)CC[C@@]4(O)C(C2)N(CC2CC2)CC[C@]314 [Compound 22, (4aS,7aR,12bS)-3-(cyclopropylmethyl)-4a-hydroxy-7-oxo-2,3,4,4a,5,6,7,7a-octahydro-1H-4,12-methanobenzofuro[3,2-e]isoquinolin-9-yl (Z)-docos-13-enoate] | – | – | – | – | – | – | Approximate Solubility (mg/mL) in Excipient: Ethanol ([1]; Ethanol, heating temp. 60 °C, obs. temp. 40 °C): >397.7 mg/mL; Approximate Solubility (mg/mL) in Excipient: Sesame oil [1, 5]: >401.9 mg/mL |
| C=C1CC[C@@]2(O)C3Cc4ccc(OC(=O)OCCCCCCCC)c5c4[C@@]2(CCN3CC2CC2)[C@H]1O5 [Compound 17, (4aS,7aS,12bS)-3-(cyclopropylmethyl)-4a-hydroxy-7-methylene-2,3,4,4a,5,6,7,7a-octahydro-1H-4,12-methanobenzofuro[3,2-e]isoquinolin-9-yl octyl carbonate] | – | 100 | 0 | 0 | 0 | 0 | Approximate Solubility (mg/mL) in Excipient: Cottonseed oil [1, 4]: >408 mg/mL |
| CCCCCCCCCCCCCCCCCC(=O)Oc1ccc2c3c1O[C@H]1C(=O)CC[C@@]4(O)C(C2)N(CC2CC2)CC[C@]314 [Compound 54, (4aS,7aR,12bS)-3-(cyclopropylmethyl)-4a-hydroxy-7-oxo-2,3,4,4a,5,6,7,7a-octahydro-1H-4,12-methanobenzofuro[3,2-e]isoquinolin-9-yl stearate] | <50 | 100 | 98.8 | 62.4 | 45.6 | 19.4 | – |
| CCCCCCCCCCCCCCOC(=O)OCOc1ccc2c3c1O[C@H]1C(=O)CC[C@@]4(O)C(C2)N(CC2CC2)CC[C@]314 [Compound 27, (((4aS,7aR,12bS)-3-(cyclopropylmethyl)-4a-hydroxy-7-oxo-2,3,4,4a,5,6,7,7a-octahydro-1H-4,12-methanobenzofuro[3,2-e]isoquinolin-9-yl)oxy)methyl tetradecyl carbonate] | >399.2 | – | – | – | – | – | – |
| C=C1CC[C@@]2(O)C3Cc4ccc(OC(=O)OCCCCCCCCCCCCCCCCCC)c5c4[C@@]2(CCN3CC2CC2)[C@H]1O5 [Compound 33, (4aS,7aS,12bS)-3-(cyclopropylmethyl)-4a-hydroxy-7-methylene-2,3,4,4a,5,6,7,7a-octahydro-1H-4,12-methanobenzofuro[3,2-e]isoquinolin-9-yl octadecyl carbonate] | <51 | – | – | – | – | – | – |
| CCCCCCCCCCCCCCCCCCCCCC(=O)Oc1ccc2c3c1O[C@H]1C(=O)CC[C@@]4(O)C(C2)N(CC2CC2)CC[C@]314 [Compound 51, (4aS,7aR,12bS)-3-(cyclopropylmethyl)-4a-hydroxy-7-oxo-2,3,4,4a,5,6,7,7a-octahydro-1H-4,12-methanobenzofuro[3,2-e]isoquinolin-9-yl docosanoate] | – | 100 | 107.4 | 105.3 | 88.2 | 92.7 | – |
| C=C1CC[C@@]2(O)C3Cc4ccc(OC(=O)CCC5CCCC5)c5c4[C@@]2(CCN3CC2CC2)[C@H]1O5 [Compound 39, (4aS,7aS,12bS)-3-(cyclopropylmethyl)-4a-hydroxy-7-methylene-2,3,4,4a,5,6,7,7a-octahydro-1H-4,12-methanobenzofuro[3,2-e]isoquinolin-9-yl 3-cyclopentylpropanoate] | 106 to 141 | – | – | – | – | – | – |
| CC(C)(C)CC(=O)Oc1ccc2c3c1O[C@H]1C(=O)CC[C@@]4(O)C(C2)N(CC2CC2)CC[C@]314 [Compound 42, (4aS,7aR,12bS)-3-(cyclopropylmethyl)-4a-hydroxy-7-oxo-2,3,4,4a,5,6,7,7a-octahydro-1H-4,12-methanobenzofuro[3,2-e]isoquinolin-9-yl 3,3-dimethylbutanoate] | – | – | – | – | – | – | Approximate Solubility (mg/mL) in Excipient: Sesame oil [1, 6]: <52 mg/mL; Approximate Solubility (mg/mL) in Excipient: Sesame oil [1, 5]: <25.8 mg/mL |
| Enalapril maleate salt [reference compound] | – | 100 | 44 | 2.9 | 8.2 | 4.8 | – |
| CCCCCCCCCCCCCCCCCCCC(=O)Oc1ccc2c3c1O[C@H]1C(=O)CC[C@@]4(O)C(C2)N(CC2CC2)CC[C@]314 [Compound 50, (4aS,7aR,12bS)-3-(cyclopropylmethyl)-4a-hydroxy-7-oxo-2,3,4,4a,5,6,7,7a-octahydro-1H-4,12-methanobenzofuro[3,2-e]isoquinolin-9-yl icosanoate] | <52 | 100 | 114.5 | 102.7 | 83.3 | 73.9 | – |
| C=C1CC[C@@]2(O)C3Cc4ccc(OC(=O)CCCCCCC/C=C\C/C=C\C/C=C\CC)c5c4[C@@]2(CCN3CC2CC2)[C@H]1O5 [Compound 20, (4aS,7aS,12bS)-3-(cyclopropylmethyl)-4a-hydroxy-7-methylene-2,3,4,4a,5,6,7,7a-octahydro-1H-4,12-methanobenzofuro[3,2-e]isoquinolin-9-yl (9Z,12Z,15Z)-octadeca-9,12,15-trienoate] | – | – | – | – | – | – | Approximate Solubility (mg/mL) in Excipient: Sesame oil [1, 6]: >406 mg/mL |
| CCCCCCCCCCCCCCCC(=O)OCOc1ccc2c3c1O[C@H]1C(=O)CC[C@@]4(O)C(C2)N(CC2CC2)CC[C@]314 [Compound 49, (((4aS,7aR,12bS)-3-(cyclopropylmethyl)-4a-hydroxy-7-oxo-2,3,4,4a,5,6,7,7a-octahydro-1H-4,12-methanobenzofuro[3,2-e]isoquinolin-9-yl)oxy)methyl hexadecanoate] | <51 | – | – | – | – | – | – |
| C=C1CC[C@@]2(O)C3Cc4ccc(OC(=O)CCCCCCCCCCCCCCCCCCC)c5c4[C@@]2(CCN3CC2CC2)[C@H]1O5 [Compound 16, (4aS,7aS,12bS)-3-(cyclopropylmethyl)-4a-hydroxy-7-methylene-2,3,4,4a,5,6,7,7a-octahydro-1H-4,12-methanobenzofuro[3,2-e]isoquinolin-9-yl icosanoate] | – | – | – | – | – | – | XRPD results (Dried) ([3]; Acetone): Pattern A; Visual observation 50° C. ([3]; Acetone): Clear; Visual observation RT ([3]; Acetone): Slurry; XRPD results (Dried) ([3]; EtOAc): Pattern A; Visual observation 50° C. ([3]; EtOAc): Clear; Visual observation RT ([3]; EtOAc): Slurry; XRPD results (Dried) ([3]; Heptane): Pattern A; Visual observation 50° C. ([3]; Heptane): Slurry; Visual observation RT ([3]; Heptane): Slurry; XRPD results (Dried) ([3]; Isopropanol): Pattern A; Visual observation 50° C. ([3]; Isopropanol): Slurry; Visual observation RT ([3]; Isopropanol): Slurry; XRPD results (Dried) ([3]; MTBE): Pattern A; Visual observation 50° C. ([3]; MTBE): Clear; Visual observation RT ([3]; MTBE): Clear; Comment: stability of initial crystal form (pattern A) ([3]; polymorph screen over Heptane, MTBE, Isopropanol, EtOAc, Acetone): likely stable form. Same crystal form; Approximate Solubility (mg/mL) in Excipient: Sesame oil [1, 5]: 202 to 404 mg/mL |
